The source of these data is US20240417403A1, “CRYSTALLINE FORMS OF QUINAZOLINE DERIVATIVES, PREPARATION, COMPOSITION AND USE THEREOF” (Hoffmann-La Roche Inc., priority 2021, published 2024).

Holding throughout (format): physicochemical
The nature of series [1]: Form change on storage/exposure at ambient conditions (XRPD). The following applies: storage / exposure at ambient condition (Freebase Type E: 30 m). Here is the method: About 15 mg of Fumarate Type A of compound (I) was suspended in 0.5 mL of H2O in an HPLC vial. The suspension was magnetically stirred at a speed of about 1000 rpm at RT for 9 days. The wet solids were isolated to afford Fumarate Type C of compound (I) (wet sample was analyzed). […] XRPD patterns and data were shown in FIG. 10 and Table 10, respectively.
About 60 mg of Amorphous Freebase of compound (I) was suspended in 2 mL of THF/H2O (1:4, v/v) in an HPLC vial. The suspension was magnetically stirred at a speed of about 1000 rpm at 5° C. for 4 days. The solids were isolated via centrifugation and dried at ambient condition for about 2 hours. After sweeping the solids by N2 for 20 min at 30° C. Freebase Type E of compound (I) was obtained.

Series [2] can be described thus: Equilibrium solubility in H2O. To be noted: 37° C., stirred 24 hours. Here is the method: (§1) An Agilent 1260 HPLC instrument was utilized and detailed chromatographic conditions for purity and solubility analysis were listed in Table 6.
About 5˜10 mg of solids were suspended in H2O to get a mixture. The suspensions were stirred for 24 hours, followed by centrifugation and filtration to obtain supernatants for HPLC test.

Series [3] is described as follows: Equilibrium solubility in pH 4.5 buffer. To be noted: 37° C., stirred 24 hours. Here is the method: as §1
About 5˜10 mg of solids were suspended in pH 4.5 buffer to get a mixture. The suspensions were stirred for 24 hours, followed by centrifugation and filtration to obtain supernatants for HPLC test.

The nature of series [4]: Contact angle against water (wettability). Here is the method: The wettability of the solid forms was evaluated by the contact angle against water.
A short description of a further series: Hygroscopicity by DVS. The protocol:
DVS is measured via a SMS (Surface Measurement Systems) DVS Intrinsic. The relative humidity at 25° C. is calibrated against deliquescence point of LiCl, Mg(NO3)2 and KCl.
DVS isotherm plot was collected at 25° C. to investigate the selected solid forms stability as a function of humidity. Compared with amorphous freebase, the hygroscopicity of Freebase Type B, Fumarate Type A, Fumarate Type B and Fumarate Type E was lower under 80% RH/25° C.

The nature of series [5]: Mechanical stability (XRPD form change after grinding and tableting). The following applies: for XRPD form change after grinding: grinding ~5 min; for XRPD form change after tableting: tableting ~234 Mpa. The protocol: Mechanical stability of the solid forms was evaluated by monitoring the XRPD form change after grinding (˜5 min) and tableting (˜234 Mpa).
Series [6] in a line: Solid state stability, 40° C./75% RH/open for 1 month (XRPD, HPLC purity). The following applies: for Purity/Initial by HPLC area % / Form Change: 40° C., 75% RH, open; for Form Change: by XRPD; for Purity change by HPLC (chemical stability) compared with amorphous freebase: 40° C./75% RH; for Solid form change by XRPD (physical stability): 40° C./75% RH/open. Here is the method: as §1
To evaluate the solid state stability of the selected forms (amorphous freebase, Freebase Type F, Fumarate Type A and Fumarate Type B) samples were stored under 40° C./75% RH/open for 1 month. Stability samples were characterized by XRPD to check any solid form change and by HPLC to check purity change.

A short description of a further series: Crystal habit by PLM. The source says: The PLM images were captured with Carl Zeiss Axio Scope. A1 microscope at RT.
PLM was used to observe the crystal habit of the particles (amorphous freebase and Fumarate Type A).

Series [7] can be described thus: TGA and DSC/mDSC thermal analysis (characterization of forms). The following applies: for TGA weight loss (%, temp.): to 150° C. Here is the method:
In salt screening and evaluation and in polymorph study, TGA was performed using a TA Q500, TA Q5000 or Discovery 5500 TGA from TA Instruments. DSC or mDSC was performed using a TA Q200/Q2000 or Discovery 2500 DSC from TA Instruments.

Series [8] in a line: Kinetic solubility in FaSSIF. To be noted: for Solubility in FaSSIF: 37° C. The protocol: as §1
Kinetic solubility of amorphous freebase and Fumarate Type B/E was measured in FaSSIF to evaluate the solubility. […] After centrifugation, supernatants were collected for HPLC tests.

Series [9] is described as follows: Equilibrium solubility in pH 6.8 buffer. To be noted: 37° C., stirred 24 hours. The protocol: as §1
About 5˜10 mg of solids were suspended in pH 6.8 buffer to get a mixture. The suspensions were stirred for 24 hours, followed by centrifugation and filtration to obtain supernatants for HPLC test.

The nature of series [10]: Bulk density, tap density and Carr index (flowability and compressibility). To be noted: for Carr index: (ρ1−ρ0)/ρ1; for Tapped density: tapped 200 times. The protocol: Bulk density was determined by adding appropriate amount (m) of material into a 5 mL graduate cylinder and recording its apparent volume (v0). The bulk density was obtained by dividing the amount of material by its apparent volume of the unsettled material (ρ0=m/v0). For tap density, the cylinder was then tapped for 200 times. The tap density was then calculated by dividing the amount of material by its final tapped volume (ρ1=m/v1). Carr index=(ρ1−ρ0)/ρ1.
(§2) The results of amorphous freebase, Freebase Type F, Fumarate Type B and Fumarate Type E for flowability and compressibility were summarized in Table 30. Generally, powders with smaller Karl index would show better compressibility and flowability. And powders with smaller angle of repose would show better flowability.

A short description of series [11]: Angle of repose (flowability).
Source text: Form the angle of repose on a fixed base with a retaining lip to retain a layer of powder on the base. Carefully build up a symmetrical cone of powder. Determine the angle of repose by measuring the height (h) and base radius (r) of the cone of powder and calculating the angle of repose a from the following equation α=tan^−1(h/r).
as §2

The nature of series [12]: Slurry competition (interconversion of free base forms at different water activity). The following applies: slurry at 24 ±3° C. Here is the method: Slurry competition experiments were performed to study the interconversion relationship between Freebase Type B and Freebase Type C. […] The inter-conversion relationship among anhydrate Freebase Type B and hydrates Type C/F/G was further investigated under different water activities at RT. the saturated solution of Freebase Type B was obtained via slurry of Freebase Type B at RT overnight in corresponding solvent systems. A mixture of Freebase Type B+C+F+G was added into corresponding saturated solution of Freebase Type B to form suspensions. The suspensions were sampled for XRPD after being stirred for four days at a speed of 750 rpm under RT.

Molecules are shown by their SMILES. In brackets after ≈: the same amount, converted by molar mass. Read-outs that look alike come from different tables or passages of the source. Marks after values point to notes of the source that are not given here.

Regarding `COc1ccc2ncnc(Nc3ccc(Oc4cc5ncnn5cn4)c(C)c3)c2c1O[C@@H]1CCN(C)CC1(F)F` [Freebase Type E, (R)-N-(4-([1,2,4]triazolo[1,5-c]pyrimidin-7-yloxy)-3-methylphenyl)-5-((3,3-difluoro-1-methylpiperidin-4-yl)oxy)-6-methoxyquinazolin-4-amine], the “Form conversion at ambient conditions” value in series [1] was “converted to Freebase Type C”.
For `COc1ccc2ncnc(Nc3ccc(Oc4cc5ncnn5cn4)c(C)c3)c2c1O[C@@H]1CCN(C)CC1(F)F` [Fumarate Type A, (R)-N-(4-([1,2,4]triazolo[1,5-c]pyrimidin-7-yloxy)-3-methylphenyl)-5-((3,3-difluoro-1-methylpiperidin-4-yl)oxy)-6-methoxyquinazolin-4-amine], the “Solubility in H2O” value in series [2] is listed as not below 5.0 mg/mL. Also, in [3], the “Solubility in pH 4.5 buffer” value was not below 8.4 mg/mL. In series [4], the Contact angle came out at 20.3°. For the same molecule, in “Hygroscopicity by DVS”, the “Hygroscopicity (in words)” value is recorded as “slightly hygroscopic” and the “Weight change at 80% RH/25° C. by DVS” value is recorded as 0.8%. Besides, in series [5], the “XRPD form change after grinding” value is “No” and the “XRPD form change after tableting” value is “No”. In addition, in series [6], the “Purity/Initial by HPLC area %” value worked out at 100.1%, the “Form Change” value is “No”, the “Purity change by HPLC (chemical stability) compared with amorphous freebase” value is “lower purity change” and the “Solid form change by XRPD (physical stability)” value was “no form change”. Further, the “Crystal habit of the particles” value in “Crystal habit by PLM” is listed as “rod-like particles with regular shape”. In series [7] (crystalline salts), the “TGA weight loss (150° C., %)” value was found to be 1.9% and the “DSC endotherm (° C., peak)” value was found to be 167.6 °C. Further, in series [7] (fumarate forms), the “DSC endotherm (° C., peak)” value was determined as 167.6 °C and the “TGA weight loss (%, temp.)” value is 1.9 (to 150° C.) %.
Broadly, the solubility is the dissolved amount per volume that the medium holds. A lower solubility goes with a poorly soluble substance. With `COc1ccc2ncnc(Nc3ccc(Oc4cc5ncnn5cn4)c(C)c3)c2c1O[C@@H]1CCN(C)CC1(F)F` [amorphous freebase, (R)-N-(4-([1,2,4]triazolo[1,5-c]pyrimidin-7-yloxy)-3-methylphenyl)-5-((3,3-difluoro-1-methylpiperidin-4-yl)oxy)-6-methoxyquinazolin-4-amine], the concentration in solution in [8] (FaSSIF, 37 °C, thermodynamic from solid, timepoint 1 h) (solubility at 1 h) was 280 µg/mL (≈ 510 µM). The same molecule gave a solubility at 2 h in series [8] (FaSSIF, 37 °C, thermodynamic from solid, timepoint 2 h) of 270 µg/mL (≈ 492 µM). In addition, the solubility at 24 h in [8] (FaSSIF, 37 °C, thermodynamic from solid, timepoint 24 h) worked out at 260 µg/mL (≈ 474 µM). For the same molecule, the “Solubility in H2O” value in series [2] was 0.16 mg/mL (≈ 292 µM). In series [3], the “Solubility in pH 4.5 buffer” value was determined as 0.18 mg/mL. Besides, the “Solubility in pH 6.8 buffer” value in series [9] came to 0.15 mg/mL. In series [10] (listed as Freebase amorphous), this molecule displayed a Carr index of 43.8%, a Bulk density of 0.23 g/mL and a Tapped density of 0.40 g/mL. In [11] (listed as Freebase amorphous), this molecule yielded an Angle of repose of 39.9°. Besides, the Contact angle in series [4] (listed as Freebase amorphous) is on record as 37.2°. For the same molecule, the “Weight change at 80% RH/25° C. by DVS” value in “Hygroscopicity by DVS” (listed as Freebase amorphous) was determined as 4.2%. The “Form Change” value in series [6] was “No”. Also, the “Purity/Initial by HPLC area %” value in series [6] (listed as Freebase amorphous) was 99.2%. In “Crystal habit by PLM”, the “Crystal habit of the particles” value is “irregular-shaped particles without defined boundary”. The “Tg, middle temperature” value in series [7] (amorphous free base, starred value in DSC column) was 58.7* ° C. The “TGA weight loss (%, temp.)” value in series [7] (free base forms) is 1.9 (to 150° C.) %.
For the molecule `COc1ccc2ncnc(Nc3ccc(Oc4cc5ncnn5cn4)c(C)c3)c2c1O[C@@H]1CCN(C)CC1(F)F` [Fumarate Type C, (R)-N-(4-([1,2,4]triazolo[1,5-c]pyrimidin-7-yloxy)-3-methylphenyl)-5-((3,3-difluoro-1-methylpiperidin-4-yl)oxy)-6-methoxyquinazolin-4-amine], the “Form conversion at ambient conditions” value in series [1] was “Form conversion between Fumarate Type C and Fumarate Type B”. Further, the “TGA weight loss (150° C., %)” value in [7] (crystalline salts) amounted to 1.5%.
On to `COc1ccc2ncnc(Nc3ccc(Oc4cc5ncnn5cn4)c(C)c3)c2c1O[C@@H]1CCN(C)CC1(F)F` [Freebase Type B, (R)-N-(4-([1,2,4]triazolo[1,5-c]pyrimidin-7-yloxy)-3-methylphenyl)-5-((3,3-difluoro-1-methylpiperidin-4-yl)oxy)-6-methoxyquinazolin-4-amine], for which, in [3], the “Solubility in pH 4.5 buffer” value was determined as 0.3 mg/mL. Also, in the series “Hygroscopicity by DVS”, the “Hygroscopicity (in words)” value was “slightly hygroscopic” and the “Weight change at 80% RH/25° C. by DVS” value is listed as 0.2%. In addition, in [5], the “XRPD form change after grinding” value is on record as “No” and the “XRPD form change after tableting” value is “No”. For the same molecule, the “Critical water activity between Freebase Type B and Type C” value in [12] was 0.8-1. Also, in series [7] (free base forms), the “DSC endotherm (° C., peak)” value was determined as 169.4 °C and the “TGA weight loss (%, temp.)” value is on record as 3.5 (to 150° C.) %.
Turning to `COc1ccc2ncnc(Nc3ccc(Oc4cc5ncnn5cn4)c(C)c3)c2c1O[C@@H]1CCN(C)CC1(F)F` [Fumarate Type B, (R)-N-(4-([1,2,4]triazolo[1,5-c]pyrimidin-7-yloxy)-3-methylphenyl)-5-((3,3-difluoro-1-methylpiperidin-4-yl)oxy)-6-methoxyquinazolin-4-amine], the “Solubility in FaSSIF” value in series [8] (timepoint 1 h) is not below 0.39 mg/mL. For the same molecule, the “Solubility in FaSSIF” value in [8] (timepoint 2 h) is on record as not below 0.39 mg/mL. Besides, the “Solubility in FaSSIF” value in series [8] (timepoint 24 h) is not below 0.39 mg/mL. In addition, in series [2], the “Solubility in H2O” value is not below 5.2 mg/mL. Moreover, in [3], the “Solubility in pH 4.5 buffer” value stood at 2.3 mg/mL. Also, in [9], the “Solubility in pH 6.8 buffer” value is 0.90 mg/mL. Also, in [10], the Bulk density was 0.36 g/mL, the Carr index is recorded as 30.4% and the Tapped density turned out to be 0.52 g/mL. The Angle of repose in series [11] is recorded as 26.6°. Moreover, the Contact angle in series [4] amounted to 29.0°. Further, the “Weight change at 80% RH/25° C. by DVS” value in the series “Hygroscopicity by DVS” was determined as 2.1%. In series [6], the “Purity/Initial by HPLC area %” value is recorded as 99.6%, the “Form Change” value is on record as “No”, the “Purity change by HPLC (chemical stability) compared with amorphous freebase” value is listed as “lower purity change” and the “Solid form change by XRPD (physical stability)” value is “no form change”. For the same molecule, the “TGA weight loss (150° C., %)” value in series [7] (crystalline salts) stood at 4.9%. The “TGA weight loss (%, temp.)” value in series [7] (fumarate forms) is given as 4.9 (to 150° C.) %.
